IC50 data for six compounds are collected here from ChEMBL document CHEMBL3886467 (2016).

For this experiment, the target named is WD repeat-containing protein 5 (Homo sapiens, UniProt P61964). In words: Binding Assay: All the FP based experiments were performed in MICROFLUOR 2 Black, "U" Bottom, 96-well Microtiter Plates (ThermoSci.) and FP was measured as mP units in a microplate reader (Tecan Ultra) with excitation at 485 nm and emission at 530 nm. To dilutions of WDR5Δ23 (2.2-0 uM) in 100 ul assay buffer (0.1M Phosphate, 25 mM KCl, 0.01% Triton, pH 6.5) 20 ul of a fixed concentration of the tracer in the assay buffer was added, followed by an addition of 5 ul DMSO to give 125 ul of total volume. Each assay had two controls: blank (without protein and tracer) and tracer only (without protein). The plates were incubated on a shaker at room temperature to reach equilibrium and mP values were measured at the 3 hour time point.
Broadly, the IC50 is the point on the concentration scale where inhibition reaches its midpoint. On to `CCNC(=O)[C@H](CCCNC(=N)N)NC(=O)C(CC)(CC)NC(=O)CC`, for which the IC50 is below 10 µM.
As for `CCC(CC)(NC(=O)C(C)C)C(=O)N[C@@H](CCCNC(=N)N)C(=O)N(C)C`, the figure is above 30 µM; as for `CCC(CC)(NC(=O)C(C)C)C(=O)N[C@@H](CCCNC(=N)N)C(=O)NC1(C(=O)NC(c2ccc(Cl)cc2)c2ccc(Cl)cc2)CCCC1`, below 3 µM.
As for `CC(=O)N[C@@H](C)C(=O)N[C@@H](C(=O)N[C@@H](C)C(N)=O)c1ccc(NC(=N)N)cc1`, the figure is above 10 µM.
Regarding `CCC(CC)(NC(=O)C(C)C)C(=O)N[C@H](CCCNC(=N)N)C(=O)NC1(C(=O)NC(c2ccc(Cl)cc2)c2ccc(Cl)cc2)CCCC1`, the half-maximal inhibitory concentration (IC50) is below 10 µM.
The result for `CC(=O)N[C@@H](C)C(=O)N[C@H](C(=O)N[C@@H](C)C(N)=O)c1ccc(NC(=N)N)cc1` reads above 10 µM.
